ChEMBL document CHEMBL5335769, “Design, synthesis and biological evaluation of novel diarylacylhydrazones derivatives for the efficient treatment of idiopathic pulmonary fibrosis” (Eur J Med Chem, 2023)
Active and inactive are the calls of the source. The rule behind the calls is not given here.

Assays:
NIH3T3 [1] = assay: Antiproliferative activity against NIH3T3 cells at 3.3 uM after 72 hrs by MTT assay; type: functional, Mus musculus
[2] = Potency index, ratio of NIF IC50 to test compound IC50 for antiproliferative activity against […] cells; type: functional, NIH3T3
NIH3T3 [3] = assay: Inhibition of TGF-beta1 induced NIH-3T3 cells activation assessed as effect on alpha-SMA at 6 uM preincubated with TGF-beta1 for 1 hr followed by compound addition and measured after 24 hrs by DAPI staining based fluorescence microscopic analysis; type: functional, cell-based; conditions: Mus musculus
NIH3T3 [4] = assay: Inhibition of TGF-beta1 induced NIH-3T3 cells activation assessed as effect on collagen I at 6 uM preincubated with TGF-beta1 for 1 hr followed by compound addition and measured after 24 hrs by DAPI staining based fluorescence microscopic analysis; type: functional, cell-based; conditions: Mus musculus
[5] = Inhibition of TGF-beta1 induced human A549 cells migration assessed as reduction in wound closure rate at 6 uM preincubated with TGF-beta1 for 1 hr followed by compound addition and measured after 24 hrs by wound healing analysis (reference value: 46.52 to 75.83 %); type: functional
[6] = Cmax in Sprague-Dawley rat at 20 mg/kg, po measured upto 24 hrs; type: ADME, organism-based; set-up: time < 24 hrs, dose 20 mg/kg, route po; conditions: in vivo
[7] = Tmax in Sprague-Dawley rat at 2 mg/kg, iv measured upto 24 hrs; type: ADME, organism-based; conditions: in vivo
[8] = Tmax in Sprague-Dawley rat at 20 mg/kg, po measured upto 24 hrs; type: ADME, organism-based; conditions: in vivo
[9] = Half life in Sprague-Dawley rat at 2 mg/kg, iv measured upto 24 hrs; type: ADME, organism-based; conditions: in vivo
[10] = Oral bioavailability in Sprague-Dawley rat at 20 mg/kg measured upto 24 hrs; type: ADME, organism-based; conditions: in vivo
Mus musculus [11] = assay: Anti-fibrotic activity in bleomycin-induced C57BL/6 mouse model of pulmonary fibrosis assessed as mouse survival rate at 60 mg/kg, po pretreated with bleomycin for 1 day followed by compound addition once daily for 22 days; type: functional, organism-based; conditions: time 22.0 day
Mus musculus [12] = assay: Anti-fibrotic activity PO dosed bleomycin-induced C57BL/6 mouse model of pulmonary fibrosis assessed as reduction in lung to body weight ratio pretreated with bleomycin for 1 day followed by compound addition once daily for 22 days; type: functional, organism-based; conditions: dose 30-60 mg/kg, time 22.0 day
Mus musculus [13] = assay: Anti-fibrotic activity in bleomycin-induced C57BL/6 mouse model of pulmonary fibrosis assessed as decrease in collagen level by measuring hydroxyproline level at 30 to 60 mg/kg, po pretreated with bleomycin for 1 day followed by compound addition once daily for 21 days; type: functional, organism-based; conditions: dose 30-60 mg/kg, time 21.0 day
Mus musculus [14] = assay: Anti-fibrotic activity in bleomycin-induced C57BL/6 mouse model of pulmonary fibrosis assessed as reduction in collagen deposition at 30 to 60 mg/kg, po pretreated with bleomycin for 1 day followed by compound addition once daily for 22 days by Masson't trichrome staining based analysis; type: functional; set-up: scale not given: the % may be the effect or the level left; conditions: dose 30-60 mg/kg, time 22 day
Mus musculus [15] = assay: Anti-fibrotic activity in bleomycin-induced C57BL/6 mouse model of pulmonary fibrosis assessed as reduction in alpha-SMA level at 30 to 60 mg/kg, po pretreated with bleomycin for 1 day followed by compound addition once daily for 22 days by immunohistochemical analysis; type: functional, organism-based; conditions: dose 30-60 mg/kg, time 22.0 day
Mus musculus [16] = assay: Anti-fibrotic activity in bleomycin-induced C57BL/6 mouse model of pulmonary fibrosis assessed as reduction in collagen I level at 30 to 60 mg/kg, po pretreated with bleomycin for 1 day followed by compound addition once daily for 22 days by immunohistochemical analysis; type: functional, organism-based; conditions: dose 30-60 mg/kg, time 22.0 day
Mus musculus [17] = assay: Anti-fibrotic activity in bleomycin-induced C57BL/6 mouse model of pulmonary fibrosis assessed as reduction in vimentin expression level at 30 to 60 mg/kg, po pretreated with bleomycin for 1 day followed by compound addition once daily for 22 days by Western blot analysis; type: functional, organism-based; conditions: dose 30-60 mg/kg, time 22.0 day
Mus musculus [18] = assay: Anti-fibrotic activity in bleomycin-induced C57BL/6 mouse model of pulmonary fibrosis assessed as reduction in p-STAT3 level at 30 to 60 mg/kg, po pretreated with bleomycin for 1 day followed by compound addition once daily for 22 days by immunohistochemical analysis; type: functional, organism-based; conditions: dose 30-60 mg/kg, time 22.0 day
[19] = Toxicity in C57BL/6 mouse assessed as effect on liver tissue at 30 to 60 mg/kg, po administered once daily; type: organism-based; conditions: in vivo, dose 30-60 mg/kg
[20] = Toxicity in C57BL/6 mouse assessed as effect on kidney tissue at 30 to 60 mg/kg, po administered once daily; type: organism-based; conditions: in vivo, dose 30-60 mg/kg
Mus musculus [21] = assay: Anti-fibrotic activity in bleomycin-induced C57BL/6 mouse model of pulmonary fibrosis assessed as reduction in ratio of dendritic cells at 30 mg/kg, po administered once daily by flow cytometry analysis (reference value: 20.21%); type: functional; set-up: scale not given: the % may be the effect or the level left
Mus musculus [22] = assay: Anti-fibrotic activity in bleomycin-induced C57BL/6 mouse model of pulmonary fibrosis assessed as reduction in ratio of dendritic cells at 60 mg/kg, po administered once daily by flow cytometry analysis (reference value: 20.21%); type: functional; set-up: scale not given: the % may be the effect or the level left
Mus musculus [23] = assay: Anti-fibrotic activity in bleomycin-induced C57BL/6 mouse model of pulmonary fibrosis assessed as reduction in ratio of CD69+CD4+ T cells at 30 mg/kg, po administered once daily by flow cytometry analysis (reference value: 9.05%); type: functional, T-cell; set-up: scale not given: the % may be the effect or the level left
Mus musculus [24] = assay: Anti-fibrotic activity in bleomycin-induced C57BL/6 mouse model of pulmonary fibrosis assessed as reduction in ratio of macrophage cells at 60 mg/kg, po administered once daily by flow cytometry analysis (reference value: 21.51%); type: functional; set-up: scale not given: the % may be the effect or the level left
Mus musculus [25] = assay: Anti-fibrotic activity in bleomycin-induced C57BL/6 mouse model of pulmonary fibrosis assessed as reduction in pathological lesions at 60 mg/kg, po pretreated with bleomycin followed by compound addition once daily on day 7 to 14 by H and E staining based analysis; type: functional, organism-based; conditions: time 7.0 day
Mus musculus [26] = assay: Anti-fibrotic activity in bleomycin-induced C57BL/6 mouse model of pulmonary fibrosis assessed as reduction in collagen hyperplasia at 60 mg/kg, po pretreated with bleomycin followed by compound addition once daily on day 7 to 14 by Masson's trichrome staining based analysis; type: functional, organism-based; conditions: time 7.0 day
Mus musculus [27] = assay: Anti-fibrotic activity in bleomycin-induced C57BL/6 mouse model of pulmonary fibrosis assessed as reduction in alpha-SMA level at 60 mg/kg, po pretreated with bleomycin followed by compound addition once daily on day 7 to 14; type: functional, organism-based; conditions: time 7.0 day
Mus musculus [28] = assay: Anti-fibrotic activity in bleomycin-induced C57BL/6 mouse model of pulmonary fibrosis assessed as reduction in vimentin level at 60 mg/kg, po pretreated with bleomycin followed by compound addition once daily on day 7 to 14; type: functional, organism-based; conditions: time 7.0 day
Mus musculus [29] = assay: Anti-fibrotic activity in bleomycin-induced C57BL/6 mouse model of pulmonary fibrosis assessed as reduction in p-STAT3 level at 60 mg/kg, po pretreated with bleomycin followed by compound addition once daily on day 7 to 14; type: functional, organism-based; conditions: time 7.0 day
Mus musculus [30] = assay: Anti-fibrotic activity in bleomycin-induced C57BL/6 mouse model of pulmonary fibrosis assessed as reduction in ratio of dendritic cells at 60 mg/kg, po pretreated with bleomycin followed by compound addition once daily on day 7 to 14 by flow cytometry analysis (reference value: 19.42%); type: functional; set-up: scale not given: the % may be the effect or the level left; conditions: time 7 day
Mus musculus [31] = assay: Anti-fibrotic activity in bleomycin-induced C57BL/6 mouse model of pulmonary fibrosis assessed as reduction in ratio of CD4+CD69+ T cells at 60 mg/kg, po pretreated with bleomycin followed by compound addition once daily on day 7 to 14 by flow cytometry analysis (reference value: 11.56%); type: functional, T-cell; set-up: scale not given: the % may be the effect or the level left; conditions: time 7 day

Q: With `O=C(N/N=C/c1ccc([N+](=O)[O-])s1)c1ccc(OCCCCCCN2CCCCC2)cc1` as the compound, how does the Activity (NIH3T3 [1]) read?
A: The Activity was 70.43%.

Q: What about the “Ratio IC50” value [2] of the same compound?
A: The value was 5.

Q: And the inhibition (NIH3T3 [3])?
A: The inhibition was “Active”.

Q: What about the inhibition (NIH3T3 [4]) of the same compound?
A: The inhibition was “Active”.

Q: What about the inhibition at 6 µM [5] of the same compound?
A: The inhibition at 6 µM was 61.1%.

Q: What about the Cmax [6] of the same compound?
A: The Cmax was 351 ng/mL.

Q: What about the Tmax [7] of the same compound?
A: Its Tmax is 4.8 min.

Q: What about the Tmax [8] of the same compound?
A: Its Tmax is 130 min.

Q: And the half-life [9]?
A: The half-life was 55.8 min.

Q: What about the bioavailability [10] of the same compound?
A: Its bioavailability is 42.1%.

Q: And the Activity (Mus musculus [11])?
A: The Activity was “Active”.

Q: What about the Activity (Mus musculus [12]) of the same compound?
A: Its Activity is “Dose-Dependent Effect”.

Q: What about the Activity (Mus musculus [13]) of the same compound?
A: The Activity was “Active”.

Q: And the Activity (Mus musculus [14])?
A: The Activity was 100%.

Q: What about the Activity (Mus musculus [15]) of the same compound?
A: The Activity was “Active”.

Q: What about the Activity (Mus musculus [16]) of the same compound?
A: The Activity was “Active”.

Q: And the Activity (Mus musculus [17])?
A: The Activity was “Active”.

Q: What about the Activity (Mus musculus [18]) of the same compound?
A: Its Activity is “Active”.

Q: And the Activity [19]?
A: Its Activity is “Non-Toxic”.

Q: And the Activity [20]?
A: Its Activity is “Non-Toxic”.

Q: What about the Activity (Mus musculus [21]) of the same compound?
A: The Activity was 4.59%.

Q: And the Activity (Mus musculus [22])?
A: The Activity was 11.71%.

Q: And the Activity (Mus musculus [23])?
A: The Activity was 4.59%.

Q: What about the Activity (Mus musculus [24]) of the same compound?
A: The Activity was 3.45%.

Q: What about the Activity (Mus musculus [25]) of the same compound?
A: The Activity was “Active”.

Q: What about the Activity (Mus musculus [26]) of the same compound?
A: The Activity was “Active”.

Q: And the Activity (Mus musculus [27])?
A: The Activity was “Active”.

Q: And the Activity (Mus musculus [28])?
A: Its Activity is “Active”.

Q: And the Activity (Mus musculus [29])?
A: The Activity was “Active”.

Q: What about the Activity (Mus musculus [30]) of the same compound?
A: Its Activity is 3.84%.

Q: And the Activity (Mus musculus [31])?
A: Its Activity is 2.66%.
